“And” between values parts separate entries of the source, which are not always exact repeats. Equal entries are not always repeated.
Experiments:
[1] = biological target: Glycogen synthase kinase-3 alpha (Homo sapiens, UniProt P49840); experiment: TR-FRET Assay
Method in brief: (§1)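 Kinase activity, measured after a 30-minute compound preincubation, was stopped with EDTA and quantified by TR-FRET using a Tb-labelled pSer641 antibody paired with streptavidin-d2.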

[2] = biological target: Glycogen synthase kinase-3 beta (Homo sapiens, UniProt P49841); experiment: TR-FRET Assay
Glycogen synthase kinase-3 beta, sequence (P49841 whole entry): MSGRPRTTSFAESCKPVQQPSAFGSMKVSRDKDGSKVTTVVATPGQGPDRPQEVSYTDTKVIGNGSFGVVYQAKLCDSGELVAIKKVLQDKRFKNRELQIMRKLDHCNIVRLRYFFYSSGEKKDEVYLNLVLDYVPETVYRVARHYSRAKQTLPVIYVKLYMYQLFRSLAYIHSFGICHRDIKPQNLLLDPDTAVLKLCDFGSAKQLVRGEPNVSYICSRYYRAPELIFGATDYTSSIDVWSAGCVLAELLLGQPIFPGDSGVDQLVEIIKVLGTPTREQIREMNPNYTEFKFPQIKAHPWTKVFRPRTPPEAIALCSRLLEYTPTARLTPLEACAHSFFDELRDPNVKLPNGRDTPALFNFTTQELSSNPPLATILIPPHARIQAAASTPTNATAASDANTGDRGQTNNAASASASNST
Method in brief: as §1

Glycogen synthase kinase-3 alpha, sequence (P49840 whole entry): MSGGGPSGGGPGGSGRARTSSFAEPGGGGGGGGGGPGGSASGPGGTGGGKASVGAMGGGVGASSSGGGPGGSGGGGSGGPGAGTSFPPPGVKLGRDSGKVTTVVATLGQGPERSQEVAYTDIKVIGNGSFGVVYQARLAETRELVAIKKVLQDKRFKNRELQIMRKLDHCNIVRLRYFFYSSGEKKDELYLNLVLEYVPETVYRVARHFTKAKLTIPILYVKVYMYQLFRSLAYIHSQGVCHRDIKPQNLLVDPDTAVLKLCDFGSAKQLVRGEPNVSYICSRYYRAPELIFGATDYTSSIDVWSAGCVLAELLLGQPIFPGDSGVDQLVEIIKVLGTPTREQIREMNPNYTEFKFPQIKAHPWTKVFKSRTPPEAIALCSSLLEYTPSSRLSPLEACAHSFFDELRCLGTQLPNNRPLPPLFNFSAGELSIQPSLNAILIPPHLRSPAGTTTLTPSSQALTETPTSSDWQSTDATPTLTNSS

| Structure (SMILES) | IC50 [1] | IC50 [2] |
| --- | --- | --- |
| CC[C@@]1(c2cccc(S(=O)(=O)CC3CC3)c2)C2=C(CC(C)(C)NC2=O)NC2N=NC(C(F)(F)F)=C21 (stereo not given in full) [US20250313563, Compound 949186] | 100 to 1000 nM | 100 to 1000 nM |
| CC[C@]1(c2cccc(-c3cnn4ccncc34)c2)C2=CN=NC2NC2=C1C(=O)NC(C)(C)C2 (stereo not given in full) [US20250313563, Compound 949263] | > 5000 nM | > 5000 nM |
| CC[C@]1(c2cccc(-c3cnn(-c4ccccn4)c3)c2)C2=CN=NC2NC2=C1C(=O)NC(C)(C)C2 (stereo not given in full) [US20250313563, Compound 949264] | > 5000 nM | > 5000 nM |
| CC[C@]1(c2cccc(-c3cnn4c3CC(C)(C)CC4)c2)C2=CN=NC2NC2=C1C(=O)NC(C)(C)C2 (stereo not given in full) [US20250313563, Compound 949265] | 1000 to 5000 nM | > 5000 nM |
| CC[C@]1(c2cccc(-c3cnn(C(C)C)c3F)c2)C2=CN=NC2NC2=C1C(=O)NC(C)(C)C2 (stereo not given in full) [US20250313563, Compound 949267] | 100 to 1000 nM | 1000 to 5000 nM |
| CC[C@@]1(c2cccc(C(F)(F)F)c2)C2=CN=NC2NC2=C1C(=O)N(c1cnn(C)c1)CC2 (stereo not given in full) [US20250313563, Compound 949271] | 100 to 1000 nM | > 5000 nM |
| CC[C@]1(c2cccc(C(F)(F)F)c2)C2=CN=NC2NC2=C1C(=O)N(c1ccccn1)CC2 (stereo not given in full) [US20250313563, Compound 949310] | 100 to 1000 nM | 100 to 1000 nM |
| CC[C@@]1(c2cccc(C(F)(F)F)c2)C2=CN=NC2NC2=C1C(=O)N(c1ccccn1)CC2 (stereo not given in full) [US20250313563, Compound 949311] | 100 to 1000 nM | > 5000 nM |
| Cc1cnccc1[C@H]1CC[C@]2(CC1)C1=C(N=NC1)NC1=C2C(=O)CC(C)(C)C1 [US20250313563, Compound 949318] | 100 to 1000 nM | 100 to 1000 nM |
| Cc1cnccc1[C@H]1CC[C@@]2(CC1)C1=C(N=NC1)NC1=C2C(=O)CC(C)(C)C1 [US20250313563, Compound 949319] | < 100 nM | < 100 nM |
| CC1(C)CC(=O)C2=C(C1)NC1=C(CN=N1)[C@]21CC[C@@H](c2ccncc2)CC1 [US20250313563, Compound 949320] | 100 to 1000 nM | 1000 to 5000 nM |
| CC1(C)CC(=O)C2=C(C1)NC1=C(CN=N1)[C@]21CC[C@H](c2ccncc2)CC1 [US20250313563, Compound 949321] | < 100 nM | < 100 nM |
| Cn1cc([C@H]2CC[C@]3(CC2)C2=C(N=NC2)NC2=C3C(=O)CC(C)(C)C2)cn1 [US20250313563, Compound 949322] | 100 to 1000 nM | 1000 to 5000 nM |
| Cn1cc([C@H]2CC[C@@]3(CC2)C2=C(N=NC2)NC2=C3C(=O)CC(C)(C)C2)cn1 [US20250313563, Compound 949323] | 1000 to 5000 nM | > 5000 nM |
| CCC1(c2cccc(-c3ccncc3F)c2)C2=C(CC(C)(C)NC2=O)NC2N=NC(Cl)=C21 (stereo not given) [US20250313563, Compound 949324] | < 100 nM and 100 to 1000 nM | < 100 nM and 1000 to 5000 nM |
| CCC1(c2cccc(C(C)C)c2)C2=C(N=NC2)NC2=C1C(=O)NC(C)(C)C2 (stereo not given) [US20250313563, Compound 949326] | < 100 nM | 100 to 1000 nM |
| CC[C@]1(c2cccc(-c3cc(C)ncc3F)c2)C2=C(CC(C)(C)NC2=O)NC2N=NC(C)=C21 (stereo not given in full) [US20250313563, Compound 949327] | 1000 to 5000 nM | > 5000 nM |
| CC[C@]1(c2cccc(OC)c2)C2=C(CC(C)(C)NC2=O)NC2N=NC(C)=C21 (stereo not given in full) [US20250313563, Compound 949328] | 1000 to 5000 nM | > 5000 nM |
| CC[C@]1(c2cccc(-c3cn(C)nc3C)c2)C2=C(CC(C)(C)NC2=O)NC2N=NC(Cl)=C21 (stereo not given in full) [US20250313563, Compound 949329] | 1000 to 5000 nM | > 5000 nM |
| CC[C@@]1(c2cccc(Oc3ncccn3)c2)C2=CN=NC2NC2=C1C(=O)NC(C)(C)C2 (stereo not given in full) [US20250313563, Compound 949330] | < 100 nM | 100 to 1000 nM |
| CC[C@@]1(c2cccc(-c3cc(C)nnc3C)c2)C2=CN=NC2NC2=C1C(=O)NC(C)(C)C2 (stereo not given in full) [US20250313563, Compound 949331] | < 100 nM and 100 to 1000 nM | 100 to 1000 nM and 1000 to 5000 nM |
| CC[C@]1(c2cccc(-c3cc(C)nnc3C)c2)C2=C(CC(C)(C)NC2=O)NC2N=NC(C)=C21 (stereo not given in full) [US20250313563, Compound 949332] | 1000 to 5000 nM | > 5000 nM |
| CC[C@@]1(c2cccc(-c3cc(C)nnc3C)c2)C2=C(CC(C)(C)NC2=O)NC2N=NC(C)=C21 (stereo not given in full) [US20250313563, Compound 949333] | < 100 nM | 100 to 1000 nM |

| Structure (SMILES) | IC50 [1] | IC50 [2] |
| --- | --- | --- |
| CC[C@]1(c2cccc(-c3cc(C)nnc3C)c2)C2=CN=NC2NC2=C1C(=O)NC(C)(C)C2 (stereo not given in full) [US20250313563, Compound 949334] | 1000 to 5000 nM | > 5000 nM |
| CC[C@]1(c2cccc(Oc3ncccn3)c2)C2=CN=NC2NC2=C1C(=O)NC(C)(C)C2 (stereo not given in full) [US20250313563, Compound 949335] | > 5000 nM | > 5000 nM |
| CC[C@@]1(c2cccc(OC)c2)C2=C(CC(C)(C)NC2=O)NC2N=NC(C)=C21 (stereo not given in full) [US20250313563, Compound 949337] | 100 to 1000 nM | 1000 to 5000 nM |
| CC[C@@]1(c2cccc(-c3cc(C)ncc3F)c2)C2=C(CC(C)(C)NC2=O)NC2N=NC(C)=C21 (stereo not given in full) [US20250313563, Compound 949338] | < 100 nM | < 100 nM |
| CC[C@]1(c2cccc(C(F)(F)F)c2)C2=CN=NC2NC2=C1C(=O)N(c1cnc(OC)nc1)[C@@H](C)C2 (stereo not given in full) [US20250313563, Compound 949352] | 100 to 1000 nM | 1000 to 5000 nM |
| CC[C@]1(c2cccc(C(F)(F)F)c2)C2=CN=NC2NC2=C1C(=O)N(c1cnc(OC)nc1)[C@@H](C)C2 (stereo not given in full) [US20250313563, Compound 949354] | 100 to 1000 nM | 1000 to 5000 nM |
| CC[C@]1(c2cccc(-c3ccnc(C(F)F)c3)c2)C2=CN=NC2NC2=C1C(=O)NC(C)(C)C2 (stereo not given in full) [US20250313563, Compound 949388] | 1000 to 5000 nM | > 5000 nM |
| CC[C@]1(c2cccc(C3=CNN4CC=CN=C34)c2)C2=CN=NC2NC2=C1C(=O)NC(C)(C)C2 (stereo not given in full) [US20250313563, Compound 949389] | 1000 to 5000 nM | > 5000 nM |
| CC[C@]1(c2cccc(C3=CNN4CC(F)=CC(F)=C34)c2)C2=CN=NC2NC2=C1C(=O)NC(C)(C)C2 (stereo not given in full) [US20250313563, Compound 949390] | 1000 to 5000 nM | > 5000 nM |
| CC[C@@]1(c2cccc(-c3c(C)ccc4c(C)cccc34)c2)C2=C(CC(C)(C)NC2=O)NC2N=NC(F)=C21 (stereo not given in full) [US20250313563, Compound 949392] | 1000 to 5000 nM | > 5000 nM |
| CC[C@@]1(c2cccc(-c3ccnn3C)c2)C2=CN=NC2NC2=C1C(=O)NC1(CCS(=O)(=O)CC1)C2 (stereo not given in full) [US20250313563, Compound 949394] | < 100 nM | 100 to 1000 nM |
| CC[C@]1(c2cccc(-c3ccnn3-c3ccc(F)cc3)c2)C2=CN=NC2NC2=C1C(=O)NC(C)(C)C2 (stereo not given in full) [US20250313563, Compound 949396] | > 5000 nM | > 5000 nM |
| CC[C@]1(c2cccc(C3CCCC3)c2)C2=CN=NC2NC2=C1C(=O)CC(C)(C)C2 (stereo not given in full) [US20250313563, Compound 949397] | < 100 nM and 100 to 1000 nM | < 100 nM and 1000 to 5000 nM |
| CC[C@@]1(c2cccc(C3CCCC3)c2)C2=CN=NC2NC2=C1C(=O)CC(C)(C)C2 (stereo not given in full) [US20250313563, Compound 949399] | 1000 to 5000 nM | > 5000 nM |
| CC[C@]1(c2cccc(-c3ccnn3C)c2)C2=CN=NC2NC2=C1C(=O)NC1(CCS(=O)(=O)CC1)C2 (stereo not given in full) [US20250313563, Compound 949400] | 1000 to 5000 nM | > 5000 nM |
| CCc1cccc([C@@]2(CC)C3=CN=NC3NC3=C2C(=O)CC(C)(C)C3)c1 (stereo not given in full) [US20250313563, Compound 949401] | < 100 nM and 100 to 1000 nM | < 100 nM and 1000 to 5000 nM |
| CCC1(c2cccc(N(C)c3ncccn3)c2)C2=C(CC(C)(C)NC2=O)NC2N=NC(Cl)=C21 (stereo not given) [US20250313563, Compound 949417] | < 100 nM | < 100 nM |
| CC[C@]1(c2cccc(-c3ccnc(C)c3)c2)C2=C(CC(C)(C)NC2=O)NC2N=NC(Cl)=C21 (stereo not given in full) [US20250313563, Compound 949421] | 100 to 1000 nM | > 5000 nM |
| CC[C@@]1(c2cccc(-c3ccnc(C)c3)c2)C2=C(CC(C)(C)NC2=O)NC2N=NC(Cl)=C21 (stereo not given in full) [US20250313563, Compound 949422] | < 100 nM and 100 to 1000 nM | < 100 nM and 1000 to 5000 nM |
| CC[C@]1(c2cccc(-c3cc(C4CCCC4)nn3C)c2)C2=CN=NC2NC2=C1C(=O)NC(C)(C)C2 (stereo not given in full) [US20250313563, Compound 949509] | > 5000 nM | > 5000 nM |
| CC[C@]1(c2cccc(-c3cnn(CCN4CCCC4)c3)c2)C2=CN=NC2NC2=C1C(=O)NC(C)(C)C2 (stereo not given in full) [US20250313563, Compound 949510] | > 5000 nM | > 5000 nM |
| CC[C@]1(c2cccc(-c3cnn(Cc4ccc(C(F)(F)F)cc4)c3)c2)C2=CN=NC2NC2=C1C(=O)NC(C)(C)C2 (stereo not given in full) [US20250313563, Compound 949511] | > 5000 nM | > 5000 nM |

From BindingDB's records for patent US20250313563 (The Broad Institute, 2025)
